Where “and” joins values, the source holds several entries; their conditions need not be identical. Equal values may be shown once.
Key:
[1] = system: human organs; experiment: Absorbed doses of radiation, estimates for human organs (OLINDA software); conditions: for radiation dose estimate, Adrenals: human organ: Adrenals; for radiation dose estimate, Brain: human organ: Brain; for radiation dose estimate, Esophagus: human organ: Esophagus; for radiation dose estimate, Eyes: human organ: Eyes; for radiation dose estimate, Gallbladder Wall: human organ: Gallbladder Wall; for radiation dose estimate, Heart Wall: human organ: Heart Wall; for radiation dose estimate, Kidneys: human organ: Kidneys; for radiation dose estimate, Left colon: human organ: Left colon; for radiation dose estimate, Liver: human organ: Liver; for radiation dose estimate, Lungs: human organ: Lungs; for radiation dose estimate, Osteogenic Cells: human organ: Osteogenic Cells; for radiation dose estimate, Pancreas: human organ: Pancreas; for radiation dose estimate, Prostate: human organ: Prostate; for radiation dose estimate, Rectum: human organ: Rectum; for radiation dose estimate, Red Marrow: human organ: Red Marrow; for radiation dose estimate, Right colon: human organ: Right colon; for radiation dose estimate, Salivary Glands: human organ: Salivary Glands; for radiation dose estimate, Small Intestine: human organ: Small Intestine; for radiation dose estimate, Spleen: human organ: Spleen; for radiation dose estimate, Stomach Wall: human organ: Stomach Wall; for radiation dose estimate, Testes: human organ: Testes; for radiation dose estimate, Thymus: human organ: Thymus; for radiation dose estimate, Thyroid: human organ: Thyroid; for radiation dose estimate, Urinary Bladder Wall: human organ: Urinary Bladder Wall; for radiation dose estimate, Effective Dose: human: Effective Dose; for radiation dose estimate, Total Body: human: Total Body
Protocol: The AUC of drug metabolisms was calculated from the biodistribution (Bio-D) data and imported into the OLINDA software to generate doses of radiation absorbed by all the organs.

[2] = Pharmacokinetics in blood of normal mice after single tail-vein injection; type: in vivo; conditions: for Blood % ID/g: normal mice, individual animals 1-4
Protocol: Through single tail-vein injections into mice, the pharmacokinetics of ^68Ga-v (Example 9) and PSMA-617 in blood was studied.
Each mouse was dosed at 50 μCi/100 μL, and blood samples were taken from the orbit 0.083, 0.25, 0.5, 1, 2, and 4 h post-dose (4 animals per time point). The blood samples were collected in pre-weighed sample tubes. The tubes were weighed and the weight of the blood samples was recorded. Then radioactivity counting was performed using a γ-counter. Meanwhile, a test sample was accurately diluted 100-fold, and 0.1 mL of the dilution was added to a counting tube and used as standard 1% ID (i.e., one percent of the injected dose). The radioactivity counts of the 1% ID standard and the biological samples were measured simultaneously on a γ-counter. The data on blood were expressed as the percentage of the radioactivity counts per gram of blood to the total injected dose (radioactivity counts) (% ID/g). Pharmacokinetic parameters were calculated from blood drug concentration data.

[3] = target: T1, rhPSMA (Homo sapiens (Human), UniProt Q04609); experiment: Affinity assays using enzyme activity method (Test Example 2); type: biochemical; conditions: for Ratio to PSMA-617: ratio of IC50 values; for IC50: rhPSMA 50 ng/well, substrate N-Acetyl-Asp-Glu, 37° C. 1 h
T1 sequence (Q04609 44-750): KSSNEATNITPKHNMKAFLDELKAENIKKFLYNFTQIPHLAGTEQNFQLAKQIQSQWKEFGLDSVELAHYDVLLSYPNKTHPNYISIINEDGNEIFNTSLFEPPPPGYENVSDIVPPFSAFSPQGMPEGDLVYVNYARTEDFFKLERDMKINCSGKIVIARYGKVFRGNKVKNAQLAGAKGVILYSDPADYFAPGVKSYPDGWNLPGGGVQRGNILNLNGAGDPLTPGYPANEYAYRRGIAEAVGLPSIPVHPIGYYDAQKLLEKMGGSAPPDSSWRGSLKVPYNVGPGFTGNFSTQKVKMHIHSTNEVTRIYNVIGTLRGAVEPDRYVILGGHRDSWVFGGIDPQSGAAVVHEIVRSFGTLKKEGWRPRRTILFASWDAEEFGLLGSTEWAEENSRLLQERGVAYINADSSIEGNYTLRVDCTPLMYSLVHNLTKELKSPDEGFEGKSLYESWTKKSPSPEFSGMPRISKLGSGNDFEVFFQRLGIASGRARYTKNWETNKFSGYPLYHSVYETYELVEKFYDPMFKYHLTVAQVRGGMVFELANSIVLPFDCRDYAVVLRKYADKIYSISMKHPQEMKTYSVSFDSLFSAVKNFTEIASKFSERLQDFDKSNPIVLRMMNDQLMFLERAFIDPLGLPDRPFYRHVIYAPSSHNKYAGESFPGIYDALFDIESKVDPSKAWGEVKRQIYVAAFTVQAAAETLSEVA
Protocol: (§1) Buffer 1 (50 mM HEPES, 0.1 M NaCl, pH 7.5) was used to prepare a 0.4 μg/mL rhPSMA solution and a 40 μM solution of the substrate N-Acetyl-Asp-Glu. rhPSMA was mixed with the small molecules to be tested in a 96-well plate, with a constant rhPSMA content of 50 ng/well maintained. Meanwhile, the small molecules were step-wise diluted to final concentrations of 1 μM, 100 nM, 33.3 nM, 11.1 nM, 3.7 nM, 1.2 nM, 0.41 nM, 0.137 nM, 0.045 nM, and 0 nM. In addition, a positive control was set up using PSMA-617. The rhPSMA-small molecules were taken at 40 μL/well and well mixed with the 40 μM solution of the substrate N-Acetyl-Asp-Glu (40 μL/well). The mixtures were incubated at 37° C. in the dark for 1 h, were heated at 70° C. for 5 min to quench the reactions, and were cooled to room temperature. Buffer 2 (0.2 M NaOH, 0.1% beta-Mercaptoethanol) was used to prepare a 15 mM OPA solution. The OPA solution was added to the reaction systems at 80 μL/well and well mixed, and then the plate was incubated at room temperature for 10 min. The mixtures were taken at 100 μL/well and added to a 96-well Flat Black. With the excitation wavelength set to 330 nm and the emission wavelength to 465 nm, the intensity of signals was measured. IC50 values were obtained from dose-response curves.

[4] = target: T1, rhPSMA; experiment: Tests for inhibitory activity against PSMA (Test Example 1); type: biochemical; conditions: rhPSMA 50 ng/well, substrate N-Acetyl-Asp-Glu, 37° C. 1 h
Protocol: • 1. Multifunctional microplate reader (SPARK, TECAN) • 2. rhPSMA (R&D, 4234-ZN) • 3. N-Acetyl-Asp-Glu (Sigma, A5930) • 4. OPA (Sigma, P0657)
PSMA inhibitors can bind to the enzyme PSMA to prevent the enzyme PSMA from decomposing the substrate N-Acetyl-Asp-Glu. In this experiment, the extent to which the substrate was decomposed and the resulting ultraviolet absorption changes were measured to evaluate the capacities of the PSMA inhibitors to bind to the enzyme PSMA, and the activity of the compounds was evaluated with IC50 values.
as §1
The capacities of the compounds of the present disclosure to bind to the enzyme GCPII can be measured through the assay described above.

## O=C([O-])CN1CCN(CC(=O)[O-])CCN(CC(=O)NCC2CCC(C(=O)N[C@@H](Cc3ccc4ccccc4c3)C(=O)NCCCC[C@H](NC(=O)N[C@@H](CCC(=O)O)C(=O)O)C(=O)O)CC2)CCN(CC(=O)[O-])CC1.[68Ga+3] (stereo partly shown) [^68Ga-PSMA-617, reference compound]
[1]
  radiation dose estimate, Adrenals: 7.49E−02 mSv/MBq
  radiation dose estimate, Brain: 7.80E−02 mSv/MBq
  radiation dose estimate, Esophagus: 1.79E−02 mSv/MBq
  radiation dose estimate, Eyes: 1.25E−02 mSv/MBq
  radiation dose estimate, Gallbladder Wall: 3.22E−02 mSv/MBq
  radiation dose estimate, Heart Wall: 3.93E−02 mSv/MBq
  radiation dose estimate, Kidneys: 5.47E−01 mSv/MBq
  radiation dose estimate, Left colon: 1.63E−02 mSv/MBq
  radiation dose estimate, Liver: 1.75E−01 mSv/MBq
  radiation dose estimate, Lungs: 1.21E−01 mSv/MBq
  radiation dose estimate, Osteogenic Cells: 3.14E−01 mSv/MBq
  radiation dose estimate, Pancreas: 1.86E−02 mSv/MBq
  radiation dose estimate, Prostate: 7.73E−03 mSv/MBq
  radiation dose estimate, Rectum: 1.83E−01 mSv/MBq
  radiation dose estimate, Red Marrow: 2.11E−02 mSv/MBq
  radiation dose estimate, Right colon: 1.34E−02 mSv/MBq
  radiation dose estimate, Salivary Glands: 9.39E−03 mSv/MBq
  radiation dose estimate, Small Intestine: 1.00E−01 mSv/MBq
  radiation dose estimate, Spleen: 1.79E−01 mSv/MBq
  radiation dose estimate, Stomach Wall: 1.91E−02 mSv/MBq
  radiation dose estimate, Testes: 3.69E−03 mSv/MBq
  radiation dose estimate, Thymus: 1.16E−02 mSv/MBq
  radiation dose estimate, Thyroid: 1.08E−02 mSv/MBq
  radiation dose estimate, Urinary Bladder Wall: 5.54E−03 mSv/MBq
  radiation dose estimate, Effective Dose: 4.68E−02 mSv/MBq
  radiation dose estimate, Total Body: 3.61E−02 mSv/MBq
[2]; 0.083 h post-dose
  Blood % ID/g: 4.22 % ID/g (2×) and 4.29 % ID/g and 3.66 % ID/g
[2]; 0.25 h after the injections, mean of n=4
  content of the radioactive substance in the blood: 2.27±0.44 % ID/g
[2]; 0.25 h post-dose
  Blood % ID/g: 2.12 % ID/g and 2.53 % ID/g and 2.71 % ID/g and 1.73 % ID/g
[2]; 0.5 h post-dose
  Blood % ID/g: 0.55 % ID/g (2×) and 0.84 % ID/g and 0.86 % ID/g
[2]; 1 h post-dose
  Blood % ID/g: 0.14 % ID/g and 0.16 % ID/g and 0.10 % ID/g and 0.13 % ID/g
[2]; 2 h post-dose
  Blood % ID/g: 0.04 % ID/g and 0.07 % ID/g and 0.10 % ID/g and 0.13 % ID/g
[2]; 4 h post-dose
  Blood % ID/g: 0.29 % ID/g and 0.10 % ID/g and 0.09 % ID/g
[2]; blood of normal mice
  half-life in the blood: 13.2 min
[2]; blood of normal mice, 0-4 h
  AUCINF_obs: 1.65 ± 0.13 h* % ID/g
  AUClast: 1.66 ± 0.14 h* % ID/g
  Cl_obs: 12.10 ± 1.0 μCi/h* % ID/g
  Cmax: 4.10 ± 0.29 % ID/g
  MRTlast: 19.8 ± 3 min
  Vz_obs: 4.06 ± 1.39 μCi/% ID/g
  t1/2: 13.2 min and 13.2 ± 1.2 min

## O=C(O)CC[C@H](NC(=O)N[C@@H](CCCCNC(=O)[C@H](Cc1ccc2ccccc2c1)NC(=O)[C@H]1CC[C@@]2(CC1)CN(C(=O)CN1CCN(CC(=O)O)CCN(CC(=O)O)CCN(CC(=O)O)CC1)CCO2)C(=O)O)C(=O)O [Example 11, (((S)-1-carboxy-5-((S)-3-(2-naphthyl)-2-((6R,9s)-4-(2-(4,7,10-tris(carboxymethyl)-1,4,7,10-tetraazacyclododecanyl)acetyl)-1-oxa-4-azaspiro[5.5]undecane-9-carboxamido)propanamido)pentyl)carbamoyl)-L-glutamic acid]
[3]
  Ratio to PSMA-617: 7.85
  IC50: 13 nM

## O=C(O)CC[C@H](NC(=O)N[C@@H](CCCCNC(=O)[C@H](Cc1ccc2ccccc2c1)NC(=O)[C@H]1CC[C@]2(CC1)CN(C(=O)CN1CCN(CC(=O)O)CCN(CC(=O)O)CCN(CC(=O)O)CC1)CCO2)C(=O)O)C(=O)O [Example 9, (((S)-1-carboxy-5-((S)-3-(2-naphthyl)-2-((6S,9r)-4-(2-(4,7,10-tris(carboxymethyl)-1,4,7,10-tetraazacyclododecanyl)acetyl)-1-oxa-4-azaspiro[5.5]undecane-9-carboxamido)propanamido)pentyl)carbamoyl)-L-glutamic acid]
[3]; enzyme activity experiment, FIG. 1
  affinity, comparison in words: better affinity than compound x of Example 11
[3]
  Ratio to PSMA-617: 0.74
  IC50: 1.23 nM

## O=C(O)CC[C@H](NC(=O)N[C@@H](CCCCNC(=O)[C@H](Cc1ccc2ccccc2c1)NC(=O)C1CC12CCNCC2)C(=O)O)C(=O)O (stereo partly shown)
[4]
  IC50: 2.4 nM

## O=C([O-])CN1CCN(CC(=O)[O-])CCN(CC(=O)N2CCO[C@]3(CC[C@H](C(=O)N[C@@H](Cc4ccc5ccccc5c4)C(=O)NCCCC[C@H](NC(=O)N[C@@H](CCC(=O)O)C(=O)O)C(=O)O)CC3)C2)CCN(CC(=O)[O-])CC1.[177Lu+3] [^177Lu-v]
[1]; from Table 5
  absorbed dose of radiation, comparison with the labeled PSMA-617 in words: smaller than that resulting from ^177Lu-PSMA-617
[1]
  radiation dose estimate, Adrenals: 1.74E−02 mSv/MBq
  radiation dose estimate, Brain: 6.03E−02 mSv/MBq
  radiation dose estimate, Esophagus: 4.33E−03 mSv/MBq
  radiation dose estimate, Eyes: 2.21E−03 mSv/MBq
  radiation dose estimate, Gallbladder Wall: 4.67E−03 mSv/MBq
  radiation dose estimate, Heart Wall: 2.72E−02 mSv/MBq
  radiation dose estimate, Kidneys: 8.83E−01 mSv/MBq
  radiation dose estimate, Left colon: 4.81E−03 mSv/MBq
  radiation dose estimate, Liver: 7.43E−02 mSv/MBq
  radiation dose estimate, Lungs: 1.95E−01 mSv/MBq
  radiation dose estimate, Osteogenic Cells: 6.52E−01 mSv/MBq
  radiation dose estimate, Pancreas: 5.14E−03 mSv/MBq
  radiation dose estimate, Prostate: 1.29E−03 mSv/MBq
  radiation dose estimate, Rectum: 1.91E−03 mSv/MBq
  radiation dose estimate, Red Marrow: 4.16E−03 mSv/MBq
  radiation dose estimate, Right colon: 3.03E−03 mSv/MBq
  radiation dose estimate, Salivary Glands: 1.67E−03 mSv/MBq
  radiation dose estimate, Small Intestine: 1.73E−01 mSv/MBq
  radiation dose estimate, Spleen: 6.84E−01 mSv/MBq
  radiation dose estimate, Stomach Wall: 2.73E−02 mSv/MBq
  radiation dose estimate, Testes: 5.84E−04 mSv/MBq
  radiation dose estimate, Thymus: 2.83E−03 mSv/MBq
  radiation dose estimate, Thyroid: 2.41E−03 mSv/MBq
  radiation dose estimate, Urinary Bladder Wall: 9.14E−04 mSv/MBq
  radiation dose estimate, Effective Dose: 5.46E−02 mSv/MBq
  radiation dose estimate, Total Body: 3.07E−02 mSv/MBq

## O=C([O-])CN1CCN(CC(=O)[O-])CCN(CC(=O)NCC2CCC(C(=O)N[C@@H](Cc3ccc4ccccc4c3)C(=O)NCCCC[C@H](NC(=O)N[C@@H](CCC(=O)O)C(=O)O)C(=O)O)CC2)CCN(CC(=O)[O-])CC1.[177Lu+3] (stereo partly shown) [^177Lu-PSMA-617, reference compound]
[1]
  radiation dose estimate, Adrenals: 2.43E−02 mSv/MBq
  radiation dose estimate, Brain: 1.38E−01 mSv/MBq
  radiation dose estimate, Esophagus: 3.39E−03 mSv/MBq
  radiation dose estimate, Eyes: 2.74E−03 mSv/MBq
  radiation dose estimate, Gallbladder Wall: 3.58E−03 mSv/MBq
  radiation dose estimate, Heart Wall: 2.41E−02 mSv/MBq
  radiation dose estimate, Kidneys: 1.47E+00 mSv/MBq
  radiation dose estimate, Left colon: 4.60E−03 mSv/MBq
  radiation dose estimate, Liver: 3.15E−02 mSv/MBq
  radiation dose estimate, Lungs: 1.12E−01 mSv/MBq
  radiation dose estimate, Osteogenic Cells: 5.58E−01 mSv/MBq
  radiation dose estimate, Pancreas: 4.36E−03 mSv/MBq
  radiation dose estimate, Prostate: 1.23E−03 mSv/MBq
  radiation dose estimate, Rectum: 1.49E−03 mSv/MBq
  radiation dose estimate, Red Marrow: 3.80E−03 mSv/MBq
  radiation dose estimate, Right colon: 2.74E−03 mSv/MBq
  radiation dose estimate, Salivary Glands: 2.18E−03 mSv/MBq
  radiation dose estimate, Small Intestine: 4.48E−02 mSv/MBq
  radiation dose estimate, Spleen: 9.86E−01 mSv/MBq
  radiation dose estimate, Stomach Wall: 8.22E−03 mSv/MBq
  radiation dose estimate, Testes: 5.04E−04 mSv/MBq
  radiation dose estimate, Thymus: 2.04E−03 mSv/MBq
  radiation dose estimate, Thyroid: 1.83E−03 mSv/MBq
  radiation dose estimate, Urinary Bladder Wall: 7.53E−04 mSv/MBq
  radiation dose estimate, Effective Dose: 4.74E−02 mSv/MBq
  radiation dose estimate, Total Body: 2.91E−02 mSv/MBq
